Measured values published in PubChem BioAssay (NCI).
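Values below derive from 48-hour exposures of cells grown in 96-well plates, with endpoints linearly interpolated between the two concentrations bracketing the appropriate inhibition level. TGI denotes the concentration required for complete inhibition of growth.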

Assays:
Experiment in all cases: NCI-60 cell line screen, 48 h
[1] = system: 786-0 renal
[2] = system: A498 renal
[3] = system: A549 NSCLC
[4] = system: ACHN renal
[5] = system: BT-549 breast
[6] = system: CAKI-1 renal
[7] = system: CCRF-CEM leukemia
[8] = system: COLO 205 colon
[9] = system: DU-145 prostate
[10] = system: EKVX NSCLC
[11] = system: HCC-2998 colon
[12] = system: HCT-116 colon
[13] = system: HCT-15 colon
[14] = system: HL-60(TB) leukemia
[15] = system: HOP-62 NSCLC
[16] = system: HOP-92 NSCLC
[17] = system: HS 578T breast
[18] = system: HT29 colon
[19] = system: IGROV1 ovarian
[20] = system: KM12 colon
[21] = system: LOX IMVI melanoma
[22] = system: M14 melanoma
[23] = system: MALME-3M melanoma
[24] = system: MCF7 breast
[25] = system: MDA-MB-435
[26] = system: MDA-N
[27] = system: MOLT-4 leukemia
[28] = system: NCI-H226 lung
[29] = system: NCI-H23 lung
[30] = system: NCI-H460 lung
[31] = system: NCI-H522 lung
[32] = system: NCI/ADR-RES ovarian
[33] = system: OVCAR-3 ovarian
[34] = system: OVCAR-4 ovarian
[35] = system: OVCAR-5 ovarian
[36] = system: OVCAR-8 ovarian
[37] = system: PC-3 prostate
[38] = system: RPMI-8226 leukemia
[39] = system: RXF 393 renal
[40] = system: SF-268 CNS
[41] = system: SF-295 CNS
[42] = system: SF-539 CNS
[43] = system: SK-MEL-28 melanoma
[44] = system: SK-MEL-5 melanoma
[45] = system: SN12C renal
[46] = system: SNB-19 CNS
[47] = system: SNB-75 CNS
[48] = system: SW-620 colon
[49] = system: T-47D breast
[50] = system: TK-10 renal
[51] = system: U251 CNS
[52] = system: UACC-257 melanoma
[53] = system: UACC-62 melanoma
[54] = system: UO-31 renal
[55] = system: K-562 leukemia
[56] = system: MDA-MB-231 breast
[57] = system: SK-MEL-2 melanoma
[58] = system: SK-OV-3 ovarian

## COc1ccc(N=NC(=O)NC(CC(C)C)C(=O)NC(Cc2ccccc2)C(=O)O)cc1 (stereo not drawn)
[1]
  TGI: > 100 µM
[2]
  TGI: > 100 µM
[3]
  TGI: > 100 µM
[4]
  TGI: > 100 µM
[5]
  TGI: > 100 µM
[6]
  TGI: > 100 µM
[7]
  TGI: > 100 µM
[8]
  TGI: 5.36 µM
[9]
  TGI: > 100 µM
[10]
  TGI: > 100 µM
[11]
  TGI: > 100 µM
[12]
  TGI: > 100 µM
[13]
  TGI: > 100 µM
[14]
  TGI: 8.18 µM
[15]
  TGI: > 100 µM
[16]
  TGI: 97.5 µM
[17]
  TGI: > 100 µM
[18]
  TGI: > 100 µM
[19]
  TGI: > 100 µM
[20]
  TGI: > 100 µM
[21]
  TGI: 46.9 µM
[22]
  TGI: > 100 µM
[23]
  TGI: > 100 µM
[24]
  TGI: > 100 µM
[25]
  TGI: > 100 µM
[26]
  TGI: > 100 µM
[27]
  TGI: > 100 µM
[28]
  TGI: > 100 µM
[29]
  TGI: > 100 µM
[30]
  TGI: > 100 µM
[31]
  TGI: > 100 µM
[32]
  TGI: > 100 µM
[33]
  TGI: > 100 µM
[34]
  TGI: > 100 µM
[35]
  TGI: > 100 µM
[36]
  TGI: > 100 µM
[37]
  TGI: > 100 µM
[38]
  TGI: > 100 µM
[39]
  TGI: > 100 µM
[40]
  TGI: > 100 µM
[41]
  TGI: > 100 µM
[42]
  TGI: 3.22 µM
[43]
  TGI: > 100 µM
[44]
  TGI: 25.6 µM
[45]
  TGI: > 100 µM
[46]
  TGI: > 100 µM
[47]
  TGI: > 100 µM
[48]
  TGI: > 100 µM
[49]
  TGI: > 100 µM
[50]
  TGI: > 100 µM
[51]
  TGI: > 100 µM
[52]
  TGI: 45.2 µM
[53]
  TGI: > 100 µM
[54]
  TGI: > 100 µM

## Cc1ccc(C2C(C(=O)C(C)(C)C)N2S(=O)(=O)c2ccc(C)cc2)cc1 (stereo not drawn)
[3]
  TGI: > 100 µM
[5]
  TGI: 37.5 µM
[6]
  TGI: 59.1 µM
[7]
  TGI: 78.1 µM
[8]
  TGI: 34.6 µM
[9]
  TGI: 38.6 µM
[10]
  TGI: 37 µM
[11]
  TGI: 33.6 µM
[12]
  TGI: 35.4 µM
[13]
  TGI: 47.5 µM
[15]
  TGI: 94.6 µM
[17]
  TGI: 82.5 µM
[18]
  TGI: 65.2 µM
[19]
  TGI: 46.5 µM
[55]
  TGI: 65.3 µM
[20]
  TGI: > 100 µM
[21]
  TGI: 53.6 µM
[22]
  TGI: 35.6 µM
[23]
  TGI: 49.1 µM
[24]
  TGI: 62.3 µM
[56]
  TGI: 39.8 µM
[25]
  TGI: 45.8 µM
[26]
  TGI: 34.8 µM
[28]
  TGI: 55.1 µM
[29]
  TGI: 48.5 µM
[31]
  TGI: 36.1 µM
[32]
  TGI: 75.9 µM
[33]
  TGI: 62 µM
[34]
  TGI: 96.2 µM
[35]
  TGI: 49.3 µM
[36]
  TGI: 51.9 µM
[37]
  TGI: > 100 µM
[38]
  TGI: 64.2 µM
[39]
  TGI: 46.1 µM
[40]
  TGI: 94.6 µM
[41]
  TGI: > 100 µM
[42]
  TGI: 28.9 µM
[57]
  TGI: > 100 µM
[43]
  TGI: 75.3 µM
[58]
  TGI: > 100 µM
[45]
  TGI: 40.6 µM
[46]
  TGI: 57.5 µM
[47]
  TGI: 69.6 µM
[48]
  TGI: 74.7 µM
[49]
  TGI: 52 µM
[50]
  TGI: 97.2 µM
[51]
  TGI: 42 µM
[53]
  TGI: 30.7 µM
[54]
  TGI: 32.6 µM
